Active and inactive are the calls of the source. No cut-off for these calls is given here.
Assays:
Vero C1008 [1] = assay: AUC (cytotoxicity %) of compound against Vero E6 cells by MTT assay.; type: toxicity, cell-based; conditions: chlorocebus sabaeus
SARS-CoV-2 [2] = conditions: Chlorocebus sabaeus; Vero C1008
[3] = biological target: Sigma intracellular receptor 2 (Homo sapiens, UniProt Q5BJF2); assay: Displacement of [3H]-DTG from the Sigma2 receptor
[4] = biological target: Sigma non-opioid intracellular receptor 1 (Homo sapiens, UniProt Q99720)
Description: Displacement of [3H]-pentazocin from the Sigma1 receptor

[5] = biological target: T1, Muscarinic acetylcholine receptor M4 (Homo sapiens, UniProt P08173); assay: Activity of compound against Muscarinic acetylcholine receptor M4 (CHRM4) by displacement of 3H-QNB
T1 sequence (P08173 whole entry): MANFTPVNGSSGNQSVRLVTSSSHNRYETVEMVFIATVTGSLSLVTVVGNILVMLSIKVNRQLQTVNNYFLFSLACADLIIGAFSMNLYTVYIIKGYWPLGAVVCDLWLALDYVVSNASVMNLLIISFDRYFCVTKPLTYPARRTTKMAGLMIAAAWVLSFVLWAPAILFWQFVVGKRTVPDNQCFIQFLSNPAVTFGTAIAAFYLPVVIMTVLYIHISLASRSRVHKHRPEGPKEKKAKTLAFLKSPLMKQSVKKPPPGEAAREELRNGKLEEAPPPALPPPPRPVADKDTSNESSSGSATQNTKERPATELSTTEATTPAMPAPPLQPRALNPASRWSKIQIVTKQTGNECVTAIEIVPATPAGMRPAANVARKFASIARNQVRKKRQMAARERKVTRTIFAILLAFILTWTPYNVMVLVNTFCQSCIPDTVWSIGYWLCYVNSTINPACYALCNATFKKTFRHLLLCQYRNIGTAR

[6] = biological target: T2, Muscarinic acetylcholine receptor M5 (Homo sapiens, UniProt P08912); assay: Activity of compound against Muscarinic acetylcholine receptor M5 (CHRM5) by displacement of 3H-QNB
T2 sequence (P08912 whole entry): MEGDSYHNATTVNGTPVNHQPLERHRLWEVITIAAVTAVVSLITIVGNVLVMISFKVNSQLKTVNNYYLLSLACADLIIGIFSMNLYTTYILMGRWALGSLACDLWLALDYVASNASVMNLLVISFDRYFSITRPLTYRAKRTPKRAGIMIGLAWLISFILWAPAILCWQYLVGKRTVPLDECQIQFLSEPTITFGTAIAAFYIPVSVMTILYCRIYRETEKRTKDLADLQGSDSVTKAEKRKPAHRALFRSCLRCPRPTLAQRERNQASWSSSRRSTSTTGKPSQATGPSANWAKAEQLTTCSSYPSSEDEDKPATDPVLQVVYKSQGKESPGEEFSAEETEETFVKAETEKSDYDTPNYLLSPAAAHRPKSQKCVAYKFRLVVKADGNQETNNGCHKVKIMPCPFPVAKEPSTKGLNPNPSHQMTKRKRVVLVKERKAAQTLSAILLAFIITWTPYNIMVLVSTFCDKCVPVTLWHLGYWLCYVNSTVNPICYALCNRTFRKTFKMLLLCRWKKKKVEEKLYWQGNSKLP

[7] = (§1) Cytotoxicity of compound against Vero E6 cells by MTT assay.; conditions: chlorocebus sabaeus, Vero E6 cells
SARS-CoV-2 [8] = assay: microbe, parasite or virus in culture; type: functional, organism-based, Chlorocebus sabaeus; conditions: Severe acute respiratory syndrome coronavirus 2, Vero C1008, 48 h
SARS-CoV-2 [9] = assay: IC90 for antiviral activity against SARS-CoV-2 in the Vero E6 cell line by measuring infectious viral titer of supernatent from compound-treated Vero E6 cells by Median Tissue Culture Infectious Dose (TCID)50 by the method of Reed and Muench; type: functional, Chlorocebus sabaeus; conditions: Severe acute respiratory syndrome coronavirus 2, Vero C1008
Vero C1008 [10] = assay: as §1; conditions: chlorocebus sabaeus, vero c1008

Sequence of Sigma intracellular receptor 2 (Q5BJF2 whole entry): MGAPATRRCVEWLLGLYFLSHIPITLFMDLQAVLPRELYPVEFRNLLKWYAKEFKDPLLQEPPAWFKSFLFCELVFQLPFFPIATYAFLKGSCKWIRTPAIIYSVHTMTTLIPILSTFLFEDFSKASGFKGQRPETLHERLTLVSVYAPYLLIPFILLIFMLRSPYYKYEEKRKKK
Sequence of Sigma non-opioid intracellular receptor 1 (Q99720 whole entry): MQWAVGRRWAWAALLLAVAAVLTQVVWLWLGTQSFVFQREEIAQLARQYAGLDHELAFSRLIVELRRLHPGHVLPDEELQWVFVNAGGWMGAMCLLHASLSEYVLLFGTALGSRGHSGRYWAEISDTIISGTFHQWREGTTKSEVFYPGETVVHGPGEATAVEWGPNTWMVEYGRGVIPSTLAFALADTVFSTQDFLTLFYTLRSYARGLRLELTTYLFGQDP

Compound	AUC cytotoxicity (Vero C1008 [1])	AUC (SARS-CoV-2 [2])	CC50 [7]	other results
O=c1[nH]c(=O)n([C@H]2C[C@H](O)[C@@H](CO)O2)cc1/C=C/Br [BRIVUDINE]	244.3	255	–	–
CCN(CC)CCCC(C)Nc1ccnc2cc(Cl)ccc12 (stereo not given) [CHLOROQUINE]	–	–	–	Ki [3]: 501 nM; Ki [4]: 79.4 nM; Ki [5]: 5750 nM; Ki [6]: 21900 nM
CCc1ccc(CCOc2ccc(CC3SC(=O)NC3=O)cc2)nc1 (stereo not given) [PIOGLITAZONE]	236.6	272	~3630 nM (inactive)	–
CC(C)CC(=O)N[C@H](C(=O)N[C@H](C(=O)N[C@@H](CC(C)C)[C@@H](O)CC(=O)N[C@@H](C)C(=O)N[C@@H](CC(C)C)[C@@H](O)CC(=O)O)C(C)C)C(C)C [PEPSTATIN]	262.3	313	~19.5 nM (inactive)	–
CC(=O)Oc1ccccc1C(=O)Nc1ncc([N+](=O)[O-])s1 [NITAZOXANIDE]	–	–	–	IC50 (SARS-CoV-2 [8]): 2820 nM
COc1cccc2c1C(=O)c1c(O)c3c(c(O)c1C2=O)C[C@@](O)(C(C)=O)C[C@@H]3O[C@H]1C[C@H](N)[C@H](O)[C@H](C)O1 [DAUNORUBICIN]	–	–	–	IC50 (SARS-CoV-2 [8]): ~214 nM
COc1cc2c(c(OC)n1)[C@]1(O)[C@H](O)[C@H](CN(C)C)[C@@H](c3ccccc3)[C@]1(c1ccc(C#N)cc1)O2 [ZOTATIFIN]	–	–	5.12 nM (active)	IC90 (SARS-CoV-2 [9]): 37 nM
Cc1ncsc1-c1ccc(CNC(=O)[C@@H]2C[C@@H](O)CN2C(=O)[C@@H](NC(=O)COCCOCCOCCNC(=O)C[C@@H]2N=C(c3ccc(Cl)cc3)c3c(sc(C)c3C)-n3c(C)nnc32)C(C)(C)C)cc1	–	–	300 nM	–
CN(C)C(=N)NC(=N)N [METFORMIN]	–	293	–	IC50 (SARS-CoV-2 [8]): ~2860 nM
Cc1cc2c(s1)Nc1ccccc1N=C2N1CCN(C)CC1 [OLANZAPINE]	–	–	~2880 nM (inactive)	–
O=C(c1ccc(-n2nnc3cccnc32)cc1)N(c1ncccc1Cl)[C@@H]1CCCNC1	–	–	–	IC50 (SARS-CoV-2 [8]): 7590 nM; pCC50 (Vero C1008 [10]): 5.61
O=c1[nH]c2ccccc2n1C1CCN(CCCC(c2ccc(F)cc2)c2ccc(F)cc2)CC1 [PIMOZIDE]	–	–	–	pCC50 (Vero C1008 [10]): 6.13
CN(C)C(=O)COC(=O)Cc1ccc(OC(=O)c2ccc(NC(=N)N)cc2)cc1 [CAMOSTAT]	276.3	251	~3630 nM (inactive)	–
Clc1ccc(C(OCCN2CCCCC2)c2ccccc2)cc1 (stereo not given) [CLOPERASTINE]	–	–	~661 nM (active)	–
Cc1cc(OCCN2CCOCC2)nn1-c1ccc2ccccc2c1	–	–	~7620 nM (inactive)	–
COc1cccc2c(NCc3ccccc3)nc(-n3c(N)nc4ccccc43)nc12	175.5	223	–	pCC50 (Vero C1008 [10]): 2.936
C[C@@H](C1CCCCC1)n1c(-c2cc3c(cc2Br)OCO3)nc2cc(C(=O)Nc3ccc(C#N)cc3)ccc21	261.6	227	~102 nM (inactive)	–
C[C@@H]1CN(CCCn2c3ccccc3c3ccccc32)C[C@H](C)N1 [RIMCAZOLE]	215.6	–	–	pCC50 (Vero C1008 [10]): 2.24
CO[C@H]1C[C@@H]2CC[C@@H](C)[C@@](O)(O2)C(=O)C(=O)N2CCCC[C@H]2C(=O)O[C@H]([C@H](C)C[C@@H]2CC[C@@H](O)[C@H](OC)C2)CC(=O)[C@H](C)/C=C(\C)[C@@H](O)[C@@H](OC)C(=O)[C@H](C)C[C@H](C)/C=C/C=C/C=C/1C [SIROLIMUS]	–	–	~0.479 nM	–
Cc1cc(Nc2cc(N)ncn2)c(=O)n2c1C(=O)NC21CCCCC1 [TOMIVOSERTIB]	245.9	231	–	pCC50 (Vero C1008 [10]): 5.26
COc1cccc2c1CCCC2CCCN1CCN(C2CCCCC2)CC1 (stereo not given)	–	–	–	IC90 (SARS-CoV-2 [9]): 278 nM

Compound	AUC cytotoxicity (Vero C1008 [1])	AUC (SARS-CoV-2 [2])	CC50 [7]	other results
O=C(O)/C(Cc1ccccc1[N+](=O)[O-])=N\Nc1nc(-c2ccc(Cl)c(Cl)c2)cs1	–	–	–	pCC50 (Vero C1008 [10]): 4.32
N=C(N)Nc1ccc(C(=O)Oc2ccc3cc(C(=N)N)ccc3c2)cc1 [NAFAMOSTAT]	–	302	–	IC50 (SARS-CoV-2 [8]): ~39800 nM (inactive)
C[C@H](CS)C(=O)N1CCC[C@H]1C(=O)O [CAPTOPRIL]	271.9	276	~1230 nM (inactive)	–
Cc1sc2c(c1C)C(c1ccc(Cl)cc1)=N[C@@H](CC(=O)OC(C)(C)C)c1nnc(C)n1-2	–	–	~66.8 nM	–
CC(C)n1nc(-c2ccc3oc(N)nc3c2)c2c(N)ncnc21 [SAPANISERTIB]	102	329	1.24 nM	–
COc1cc(OC)c2c(=O)[nH]c(-c3cc(C)c(OCCO)c(C)c3)nc2c1 [APABETALONE]	281.9	293	~207 nM (inactive)	–
NC(=O)c1ncn([C@@H]2O[C@H](CO)[C@@H](O)[C@H]2O)n1 [RIBAVIRIN]	–	–	~21700 nM (inactive)	–
CCNC(=O)c1noc(-c2cc(C(C)C)c(O)cc2O)c1-c1ccc(CN2CCOCC2)cc1 [LUMINESPIB]	161.6	172	~67.6 nM	–
CCCC(CCC)C(=O)O [VALPROIC ACID]	235.1	300	–	–
NCCCC[C@H](N[C@@H](CCc1ccccc1)C(=O)O)C(=O)N1CCC[C@H]1C(=O)O [LISINOPRIL ANHYDROUS]	–	–	~8320 nM (inactive)	–
COc1ccc(-c2sc(NC(=O)C(C)(C)C)nc2C)cc1S(=O)(=O)Nc1ccc(O)cc1	–	–	–	pCC50 (Vero C1008 [10]): 5.25
CC[C@H](C)C(=O)O[C@H]1C[C@@H](C)C=C2C=C[C@H](C)[C@H](CC[C@@H]3C[C@@H](O)CC(=O)O3)[C@H]21 [LOVASTATIN]	–	–	–	pCC50 (Vero C1008 [10]): 5.4
c1ccc(CNc2nc(NCc3ccccc3)c3ccccc3n2)cc1	–	–	–	pCC50 (Vero C1008 [10]): 5.19
N#CC[C@H](C1CCCC1)n1cc(-c2ncnc3[nH]ccc23)cn1 [RUXOLITINIB]	248.3	316	–	–
COc1ccc2c(c1)[C@]13CCCC[C@@H]1[C@H](C2)N(C)CC3 [DEXTROMETHORPHAN]	296.5	271	~871 nM	–
Cc1cc2c(C(N)=O)cccc2n1-c1nc2c(c(NCc3ccccc3)n1)COCC2 [CB-5083]	–	280	–	–
CC(C)c1cc(C(=O)N2Cc3ccc(CN4CCN(C)CC4)cc3C2)c(O)cc1O [ONALESPIB]	170.7	177	~1.66 nM	–
COC(=O)C1(c2ccc(C)cc2)CC1CN1CCC(O)(c2ccccc2)CC1 (stereo not given)	–	–	~4000 nM (inactive)	–
Cc1noc2c1-c1ccccc1C(c1ccc(Cl)cc1)=N[C@H]2CC(N)=O [PELABRESIB]	193.2	249	~42.7 nM (inactive)	–
O=C(O)c1ccc2c(c1)nc(Nc1cccc(Cl)c1)c1ccncc12 [SILMITASERTIB]	225.5	216	–	pCC50 (Vero C1008 [10]): 5.5
